The results in this text go back to patent US20220389003A1, “4-SUBSTITUTED INDOLE AND INDAZOLE SULFONAMIDO DERIVATIVES AS PARG INHIBITORS” (IDEAYA BIOSCIENCES, INC., priority 2019, published 2022).

Test [1] concerns the target T1, PARG (Homo sapiens, UniProt Q86W56). In words: Inhibition of PARG cellular assay (PAR foci in HeLa cells after MMS). Set-up: endogenous in cells; host or cells: HeLa. As to conditions: compound 1 h then MMS 1 h. Type of test: cell-based. The method in brief:
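HeLa cells pretreated with compound for 1 h, then given MMS for a further 1 h, fixed and immunostained for PAR polymer. High-content imaging quantified nuclear PAR foci intensity (PAR Foci IC50) and percent cells with foci signal >1.3 (PAR % positive IC50).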

The test system of test [2] is HCC1806-XRCC1 KD (knock down) cells. In words: Cellular viability assay (Cell Titer-Glo). The test is classed as cell-based. As to conditions: 96 h, HCC1806-shXRCC1 cells, 4 days of incubation, read-out: PARGi cell viability. The method in brief: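 XRCC1-knockdown HCC1806 cells seeded 24 h before dosing; 9-point 1:3 dilution from 30 μM top concentration, duplicates, 4-day incubation. Viability by CellTiter-Glo luminescence, normalized to DMSO wells as % of control; curves fit with 4-parameter inhibition model.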
(Cellular ATP, detected with luciferase, serves as a proxy for viable cell number.)

Test [3] has as its target T1, PARG. Nature of the test: Inhibition of PARG enzymatic assay (TR-FRET enzymatic IC50 assay). Type of test: biochemical. Set-up: purchased Peak Proteins. To be noted: hPARG 250 pM, biotinylated-PARylated PARP substrate 30 nM. The essentials: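 Compound preincubated 1 h with 250 pM His-tagged hPARG, then 30 nM biotinylated PARylated hPARP1 substrate added for 10 min; buffer 50 mM Tris-HCl pH 7.4, EDTA/EGTA, 1 mM DTT, 23° C. TR-FRET read after 1 h with anti-His ULight antibody and streptavidin-europium; inhibition scaled between DMSO and no-enzyme controls.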

T1 sequence (Q86W56 whole entry): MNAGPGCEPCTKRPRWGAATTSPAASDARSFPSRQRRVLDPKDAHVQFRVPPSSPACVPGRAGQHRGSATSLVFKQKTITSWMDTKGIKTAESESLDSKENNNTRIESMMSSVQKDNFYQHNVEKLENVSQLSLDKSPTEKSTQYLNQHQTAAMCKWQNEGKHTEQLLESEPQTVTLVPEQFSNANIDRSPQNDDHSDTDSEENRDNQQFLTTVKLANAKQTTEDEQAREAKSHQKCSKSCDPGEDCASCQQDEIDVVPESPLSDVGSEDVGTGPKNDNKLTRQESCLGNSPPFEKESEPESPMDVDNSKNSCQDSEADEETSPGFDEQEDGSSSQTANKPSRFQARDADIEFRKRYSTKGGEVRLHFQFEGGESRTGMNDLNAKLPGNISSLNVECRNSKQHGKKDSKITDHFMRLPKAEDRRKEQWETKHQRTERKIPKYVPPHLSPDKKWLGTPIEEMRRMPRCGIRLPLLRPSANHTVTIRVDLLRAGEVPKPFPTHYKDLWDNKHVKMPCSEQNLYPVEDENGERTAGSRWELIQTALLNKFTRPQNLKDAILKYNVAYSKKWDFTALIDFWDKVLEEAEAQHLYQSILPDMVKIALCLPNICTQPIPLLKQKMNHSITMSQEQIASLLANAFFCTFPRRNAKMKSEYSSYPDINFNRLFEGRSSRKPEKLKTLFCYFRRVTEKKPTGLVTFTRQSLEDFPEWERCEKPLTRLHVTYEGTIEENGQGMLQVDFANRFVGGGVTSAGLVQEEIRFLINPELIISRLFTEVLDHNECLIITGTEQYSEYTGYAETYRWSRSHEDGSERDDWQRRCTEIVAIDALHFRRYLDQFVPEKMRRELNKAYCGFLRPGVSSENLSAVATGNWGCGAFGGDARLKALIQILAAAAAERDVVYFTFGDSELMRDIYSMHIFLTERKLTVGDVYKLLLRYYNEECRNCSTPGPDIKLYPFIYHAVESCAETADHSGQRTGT

Take `CC(C)C(=O)N1CCN(c2cc(S(=O)(=O)NC3(C#N)CC3)cc3c2cnn3-c2nnc(C(F)F)s2)C[C@@H]1C` [Example 88, 1-[({4-[(3S)-3-methyl-4-(2-methylpropanoyl)piperazinyl]-1-[5-(difluoromethyl) (1,3,4-thiadiazol-2-yl)]-1H-indazol-6-yl}sulfonyl)amino]cyclopropanecarbonitrile]: the values for the IC50 (at PARG [1]; in test [2]; against PARG [3]) were at most 100 nM, 1000 to 10000 nM and at most 100 nM, respectively.
As to `CC(C)C(=O)N1[C@H](C)CN(c2cc(S(=O)(=O)NC3(C#N)CC3)cc3c2cnn3-c2nnc(C(F)F)s2)C[C@@H]1C` [Example 89, 1-[({4-[cis-3,5-dimethyl-4-(2-methylpropanoyl)piperazinyl]-1-[5-(difluoromethyl)-(1,3,4-thiadiazol-2-yl)]-1H-indazol-6-yl}sulfonyl)amino]cyclopropanecarbonitrile], the results for the IC50 (at PARG [1]; in test [2]; against PARG [3]) were at most 100 nM, 1000 to 10000 nM and at most 100 nM, respectively.
On to `CN1CCC[C@@H]1C(=O)N1CCN(c2cc(S(=O)(=O)NC3(C#N)CC3)cc3c2cnn3-c2nnc(C(F)F)s2)CC1` [Example 90, 1-{[(4-{4-[((2R)-1-methylpyrrolidin-2-yl)carbonyl]piperazinyl}-1-[5-(difluoromethyl)(1,3,4-thiadiazol-2-yl)]-1H-indazol-6-yl)sulfonyl]amino}cyclopropanecarbonitrile], for which the values for the IC50 (against PARG [1]; in test [2]; against PARG [3]) were 1000 to 10000 nM, 1000 to 10000 nM and at most 100 nM, respectively.
For `CC(C)C(=O)N1C2CC1CN(c1cc(S(=O)(=O)NC3(C#N)CC3)cc3c1cnn3-c1nnc(C(F)F)s1)C2` [Example 91, 1-[({1-[5-(difluoromethyl)(1,3,4-thiadiazol-2-yl)]-4-[6-(2-methylpropanoyl)-3,6-diazabicyclo[3.1.1]hept-3-yl]-1H-indazol-6-yl}sulfonyl)amino]cyclopropanecarbonitrile], the IC50 lay within 1000 to 10000 nM on PARG [1], 20000 to 30000 nM in test [2] and 1000 to 10000 nM against PARG [3].
As to `N#CC1(NS(=O)(=O)c2cc(N3CCN(c4ccccn4)CC3)c3cnn(-c4nnc(C(F)F)s4)c3c2)CC1` [Example 93, 1-[({1-[5-(difluoromethyl)(1,3,4-thiadiazol-2-yl)]-4-(4-(2-pyridyl)piperazinyl)-1H-indazol-6-yl}sulfonyl)amino]cyclopropanecarbonitrile], the IC50 was in the range of 300 to 1000 nM at PARG [1], 1000 to 10000 nM in test [2] and 1000 to 10000 nM on PARG [3].
As for `N#CC1(NS(=O)(=O)c2cc(N3CCN(c4cccnc4)CC3)c3cnn(-c4nnc(C(F)F)s4)c3c2)CC1` [Example 94, 1-[({1-[5-(difluoromethyl)(1,3,4-thiadiazol-2-yl)]-4-(4-(3-pyridyl)piperazinyl)-1H-indazol-6-yl}sulfonyl)amino]cyclopropanecarbonitrile], the IC50 was 300 to 1000 nM at PARG [1], 1000 to 10000 nM in test [2] and 300 to 1000 nM against PARG [3].
Take `N#CC1(NS(=O)(=O)c2cc(N3CCN(c4cccnn4)CC3)c3cnn(-c4nnc(C(F)F)s4)c3c2)CC1` [Example 95, 1-[({1-[5-(difluoromethyl)(1,3,4-thiadiazol-2-yl)]-4-(4-pyridazin-3-ylpiperazinyl)-1H-indazol-6-yl}sulfonyl)amino]cyclopropanecarbonitrile]: the IC50 against PARG [1] is 100 to 300 nM; in test [2], 1000 to 10000 nM; against PARG [3] it was at most 100 nM.
Regarding `N#CC1(NS(=O)(=O)c2cc(N3CCN(C(=O)c4ccccc4)CC3)c3cnn(-c4nnc(C(F)F)s4)c3c2)CC1` [Example 96, 1-[({1-[5-(difluoromethyl)(1,3,4-thiadiazol-2-yl)]-4-[4-(phenylcarbonyl)piperazinyl]-1H-indazol-6-yl}sulfonyl)amino]cyclopropanecarbonitrile], the IC50 at PARG [1] is at most 100 nM; in test [2], 1000 to 10000 nM; on PARG [3], at most 100 nM.
Regarding `Cc1nnc(-n2ncc3c(N4CCN(C(=O)C(C)C)CC4)cc(S(=O)(=O)NC4(C#N)CC4)cc32)s1` [Example 97, 1-[({1-(5-methyl(1,3,4-thiadiazol-2-yl))-4-[4-(2-methylpropanoyl)piperazinyl]-1H-indazol-6-yl}sulfonyl)amino]cyclopropanecarbonitrile], the results for the IC50 (at PARG [1]; in test [2]; at PARG [3]) were 100 to 300 nM, 1000 to 10000 nM and at most 100 nM, respectively.
The corresponding values for `CC(C)NS(=O)(=O)c1cc(N2CCN(C(=O)C(C)C)CC2)c2cnn(-c3nnc(C(F)F)s3)c2c1` [Example 98, 1-[4-(1-[5-(difluoromethyl)(1,3,4-thiadiazol-2-yl)]-6-{[(methylethyl)amino]sulfonyl}(1H-indazol-4-yl))piperazinyl]-2-methylpropan-1-one] are 1000 to 10000 nM, 1000 to 10000 nM and 100 to 300 nM.
On the same counts, the results for `CC(C)C(=O)N1CCN(c2cc(S(=O)(=O)NC(C)(C)C)cc3c2cnn3-c2nnc(C(F)F)s2)CC1` [Example 99, 1-[4-(1-[5-(difluoromethyl)(1,3,4-thiadiazol-2-yl)]-6-{[(tert-butyl)amino]sulfonyl}(1H-indazol-4-yl))piperazinyl]-2-methylpropan-1-one] are 1000 to 10000 nM, 1000 to 10000 nM and 100 to 300 nM.
Take `N#CC1(NS(=O)(=O)c2cc(N3CCOCC3)c3cnn(-c4nnc(C(F)F)s4)c3c2)CC1` [Example 100, 1-[({1-[5-(difluoromethyl)(1,3,4-thiadiazol-2-yl)]-4-morpholin-4-yl-1H-indazol-6-yl}sulfonyl)amino]cyclopropanecarbonitrile]: the IC50 was 300 to 1000 nM against PARG [1], 1000 to 10000 nM in test [2] and 100 to 300 nM against PARG [3].
The corresponding values for `C[C@H]1CN(c2cc(S(=O)(=O)NC3(C#N)CC3)cc3c2cnn3-c2nnc(C(F)F)s2)CCO1` [Example 103, (S)—N-(1-cyanocyclopropyl)-1-(5-(difluoromethyl)-1,3,4-thiadiazol-2-yl)-4-(2-methylmorpholino)-1H-indazole-6-sulfonamide] are 100 to 300 nM, 1000 to 10000 nM and 100 to 300 nM.
In the case of `N#CC1(NS(=O)(=O)c2cc(N3CCC(F)CC3)c3cnn(-c4nnc(C(F)F)s4)c3c2)CC1` [Example 104, 1-[({1-[5-(difluoromethyl)(1,3,4-thiadiazol-2-yl)]-4-(4-fluoropiperidyl)-1H-indazol-6-yl}sulfonyl)amino]cyclopropanecarbonitrile], the IC50 at PARG [1] fell in the range of 300 to 1000 nM; in test [2], 1000 to 10000 nM; on PARG [3] it was 300 to 1000 nM.
Take `C[C@@H]1CN(c2cc(S(=O)(=O)NC3(C#N)CC3)cc3c2cnn3-c2nnc(C(F)F)s2)CCN1C(=O)C1CCN(CC(F)F)CC1` [Example 106, 1-({[4-((3R)-4-{[1-(2,2-difluoroethyl)(4-piperidyl)]carbonyl}-3-methylpiperazinyl)-1-[5-(difluoromethyl)(1,3,4-thiadiazol-2-yl)]-1H-indazol-6-yl]sulfonyl}amino) cyclopropanecarbonitrile]: the IC50 at PARG [1] was at most 100 nM; in test [2], 1000 to 10000 nM; on PARG [3], at most 100 nM.
`N#CC1(NS(=O)(=O)c2cc(N3CCN(C(=O)C4CCN(CC(F)F)CC4)CC3)c3cnn(-c4nnc(C(F)F)s4)c3c2)CC1` [Example 107, 1-({[4-(4-{[1-(2,2-difluoroethyl)(4-piperidyl)]carbonyl}piperazinyl)-1-[5-(difluoro-methyl)(1,3,4-thiadiazol-2-yl)]-1H-indazol-6-yl]sulfonyl}amino)cyclopropane carbonitrile]: the values for the IC50 (at PARG [1]; in test [2]; against PARG [3]) were 100 to 300 nM, 1000 to 10000 nM and at most 100 nM, respectively.
On to `C[C@@H]1CN(c2cc(S(=O)(=O)NC3(C#N)CC3)cc3c2cnn3-c2nnc(C(F)F)s2)CCN1C(=O)C1(C)CC1` [Example 108, 1-{[(4-{(3R)-3-methyl-4-[(methylcyclopropyl)carbonyl]piperazinyl}-1-[5-(difluoro-methyl)(1,3,4-thiadiazol-2-yl)]-1H-indazol-6-yl)sulfonyl]amino}cyclopropane carbonitrile], for which the IC50 against PARG [1] was at most 100 nM; in test [2], under 1000 nM; against PARG [3] it was at most 100 nM.
In the case of `C[C@@H]1CN(c2cc(S(=O)(=O)NC3(C#N)CC3)cc3c2cnn3-c2nnc(C(F)F)s2)CCN1C(=O)C1(C)CCC1` [Example 109, 1-{[(4-{(3R)-3-methyl-4-[(methylcyclobutyl)carbonyl]piperazinyl}-1-[5-(difluoro-methyl)(1,3,4-thiadiazol-2-yl)]-1H-indazol-6-yl)sulfonyl]amino}cyclopropane carbonitrile], the IC50 was at most 100 nM on PARG [1], under 1000 nM in test [2] and at most 100 nM at PARG [3].
For the molecule `CCC(C)C(=O)N1CCN(c2cc(S(=O)(=O)NC3(C#N)CC3)cc3c2cnn3-c2nnc(C(F)F)s2)C[C@H]1C` (stereo partly drawn) [Example 110, 1-[({4-[(3R)-3-methyl-4-(2-methylbutanoyl)piperazinyl]-1-[5-(difluoromethyl)-(1,3,4-thiadiazol-2-yl)]-1H-indazol-6-yl}sulfonyl)amino]cyclopropane carbonitrile], the IC50 on PARG [1] was 100 to 300 nM; in test [2], under 1000 nM; against PARG [3], at most 100 nM.
